The text below walks through data of US4990531A, “Derivatives of 1-arylsulphonyl-2-pyrrolidinone and their use as medicaments” (Roussel Uclaf, priority 1988, dated 1991).

SMILES strings stand for the structures. Read-outs that look alike come from different tables or passages of the source.

For data set [1], the system named is contractions induced by acetylcholine, isolated ileum. The data set can be described thus: Antagonism of acetylcholine-induced contractions, isolated guinea-pig ileum. The following applies: acetylcholine 1×10^-6 M; contact time one minute; read-out: Antagonism with various agents (IC50): Ach. The protocol:
(§1) The interaction of the compounds with various receptors was evaluated on the isolated ileum of a guinea-pig according to the following method.
(§2) Segments of the ileum of guinea-pigs of 2.5-3 cm were washed and immediately suspended in a bath containing 10 ml of Tyrode's solution at 37° C. and aerated with a mixture of oxygen (95%) and carbon dioxide (5%). After a stabilization period of at least 30 minutes contractions were recorded, while the preparation was maintained under constant tension of 1 g, by means of a detector connected to a polygraph. The agonistic action was evaluated by leaving the compound in contact with the isolated tissue for a period necessary to show the maximum […]; then it was washed with the Tyrode's solution. The following dose was added only after the preparation had returned to its base line. Arecoline was used as a reference product. The antagonist action was evaluated on the contractions induced by acetylcholine (1×10^-6 M), histamine (1×10^-5 M), serotonine (1×10^-6 M) and barium chloride (2×10^-4 M). […] The contact time before adding the agonist was one minute.
(§3) For each compound the does response curves are obtained with 4 to 6 different concentrations and 3 to 5 independent tests. The agonist activity is expressed by pD2 (negative logarithm of the dose which produces 50% of the maximum effect).

In data set [2] the test system is contractions induced by acetylcholine, isolated colon. Briefly: Antagonism of acetylcholine-induced contractions, isolated colon of rat. The following applies: acetylcholine 3×10^-6 M; contact 3 minutes. The protocol:
The remarkable antagonist action of the compounds of the invention was confirmed on the isolated colon of rats. In this test it was established whether the antagonist activity was of competitive or non-competitive type.
(§4) The following method was used: segments of the colon of rats of about 2.5 cm are washed and suspended in an insulated bath containing 10 ml of a solution of De Jalon having the following composition: (mM): NaCl 154; KCl 5.7; CaCl2 0.27; NaHCO3 5.9 and glucose 2.5. The temperature of the bath is maintained at 32° C. In these conditions, while maintaining the preparation under a tension of 1 g, the spontaneous activity of the colon is minimal. After a stabilization period of at least 30 minutes, the tension variations are recorded using an isometric transducer connected to a recorder. A series of tests was carried out to evaluate the antagonist activity in relation to the contractions induced by a maximum dose of acetylcholine. (3×10^-6 M).
The compounds are left in contact with the preparation for 3 minutes before adding acetylcholine.
Atropine was used as a reference product. For each compound the dose-response curves are obtained with 4 to 6 different concentrations and 3 to 5 independent tests.

For data set [3], the target named is T1, muscarine receptors, involved in the contractions of the colon (Rattus norvegicus, UniProt P08483).
T1 construct: segments of the colon of rats of about 2.5 cm; from tissue; host or cells: isolated rat colon segments
T1 sequence (P08483 whole entry): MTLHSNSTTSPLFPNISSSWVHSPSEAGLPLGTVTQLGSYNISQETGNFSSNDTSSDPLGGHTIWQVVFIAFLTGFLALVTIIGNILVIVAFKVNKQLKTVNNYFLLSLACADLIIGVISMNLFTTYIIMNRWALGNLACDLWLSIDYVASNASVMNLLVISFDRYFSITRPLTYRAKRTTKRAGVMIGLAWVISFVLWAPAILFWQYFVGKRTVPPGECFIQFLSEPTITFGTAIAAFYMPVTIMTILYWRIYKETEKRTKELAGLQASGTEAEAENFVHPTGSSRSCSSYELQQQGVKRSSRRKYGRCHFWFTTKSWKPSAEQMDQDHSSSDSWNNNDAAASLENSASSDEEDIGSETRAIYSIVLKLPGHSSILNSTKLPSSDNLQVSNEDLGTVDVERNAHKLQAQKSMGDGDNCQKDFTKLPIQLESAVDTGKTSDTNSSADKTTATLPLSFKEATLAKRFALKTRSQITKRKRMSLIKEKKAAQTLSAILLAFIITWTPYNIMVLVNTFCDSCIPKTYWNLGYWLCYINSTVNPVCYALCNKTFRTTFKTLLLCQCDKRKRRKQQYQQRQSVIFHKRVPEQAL
Briefly: Antagonist affinity and type of antagonism (Schild), isolated colon of rat. The protocol: as §4
For each compound the dose-response curves are obtained with 4 to 6 different concentrations and 3 to 5 independent tests.
In a second series of tests the acetylcholine is added to the bath in cumulative doses according to the van Rossum method (J. M. van Rossum, Arch, Int. Pharmacodyn. 143, 299, 1963). Having obtained two equal and consecutive dose-response curves with acetylcholine, a third dose-responsecurve is obtained in the presence of the compound (contact time of compound before acetylcholine=5 min.) Each compound was tested with 3-4 different concentrations
The antagonist affinity and the type of antagonism (competitive, non-competitive) for the muscarine receptors was calculated according to Schild's method (H. D. Schild, Brit. J. Pharmacol. 2, 189, 1947).

Data set [4] has as its system cholinomimetic effects induced by carbachol. Briefly: In vivo anticholinergic action: inhibition of carbachol-induced cholinomimetic effects. The following applies: for ED50 / ED (1 degree C): Mus musculus, ip, 0.5 h; for ED (1 degree C): rectal temperature, read-out: Body Temperature: dose able to increase by 1° C. the hypothermic effect induced by carbachol. On the set-up: species or system CD1 male mice. The protocol: The anticholinergic activity of the compounds was determined by evaluating the capacity to inhibit cholinomimetic effects induced by carbachol. Atropine sulphate was used as reference product.
CD1 male mice are used weighing 25 to 30 g. They are divided into groups of 5 animals and treated by intraperitoneal route, in scaled doses, with the products or with 0.25% of Methocel for the controls. 10 animals are used for each dose. 30 minutes after the administration of the compounds, the mice are subcutaneously injected with 1 mg/kg of carbachol, dissolved in physiological serum.
Each animal was examined 30 minutes after the injection of carbachol to evaluate the presence of diarrhea, salivation and watering of the eyes; the body temperature was also measured using a thermocouple inserted 1.5 cm into the rectum.
For each compound, there was determined, and recorded in the following table, the dose able to inhibit, in 50% of the animals, the appearance of peripheral cholinomimetic symptoms induced by carbachol, and to increase by 1° C. the hypothermic effect induced by the cholinergic agent.

The test system of another data set is isolated ileum. Briefly: Agonist action on isolated guinea-pig ileum. The following applies: negative logarithm of the dose producing 50% of maximum effect. The protocol: as §1, §2, §3
Data set [5] has as its system contractions induced by barium chloride, isolated ileum. Briefly: Antagonism of barium chloride-induced contractions, isolated guinea-pig ileum. The following applies: barium chloride 2×10^-4 M; contact time one minute; read-out: Antagonism with various agents (IC50): BaCL2. The protocol: as §1, §2, §3
Data set [6] is described as follows: Solubility in various solvents. The data set is classed as physicochemical.
The mark [7] stands for this setting: i.p., carbachol 1 mg/kg s.c. 30 min later, read-out: dose able to inhibit, in 50% of the animals, Diarrhea.
[8] abbreviates: i.p., carbachol 1 mg/kg s.c. 30 min later, read-out: dose able to inhibit, in 50% of the animals, Salivation.
[9] abbreviates: i.p., carbachol 1 mg/kg s.c. 30 min later, read-out: dose able to inhibit, in 50% of the animals, Watering of Eyes.
The mark [10] stands for this setting: i.p., carbachol 1 mg/kg s.c. 30 min later.

Consider `CN1[C@@H]2CC[C@H]1C[C@@H](OC(=O)C(CO)c1ccccc1)C2` (stereo partly shown) [Atropine, reference compound], for which the IC50 (usually the point on the concentration scale where inhibition reaches its midpoint) in data set [1] was determined as 9.5 nM; in data set [2] it was 27 nM. Further, the “"Slope" of Schild plot, isolated colon of rat” value in data set [3] (cumulative acetylcholine, Schild's method, contact 5 min) came out at 0.97. Further, the “displacement of the dose-response curve of acetylcholine” value in data set [3] (isolated colon of rat, in words) was “parallel displacement towards the right of the dose-response curve of acetyl-choline without reducing the maximum contraction”. The ED50 was 0.04 mg/kg in data set [4] (read-out: dose able to inhibit, in 50% of the animals, Diarrhea); 0.06 mg/kg in data set [4] (read-out: dose able to inhibit, in 50% of the animals, Salivation); 0.05 mg/kg in data set [4] (read-out: dose able to inhibit, in 50% of the animals, Watering of Eyes).
On to `O=C1CCCN1S(=O)(=O)c1ccc(N2CCCCC2)cc1` [Example 10, 1-[4-(1-piperidinyl)phenylsulphonyl]-2-pyrrolidinone], for which the ED50 was 3 mg/kg in data set [4] (setting [7]), 50 mg/kg in data set [4] (setting [8]) and greater than 50 mg/kg in data set [4] (setting [9]). Besides, the ED (1 degree C) in data set [4] (setting [10]) is greater than 50 mg/kg. In addition, the “selective anticholinergic action in vivo” value in data set [4] (i.p., mice, in words) was “selective anticholinergic action on the intestinal musculature”.
With `COC(=O)C1=CCCN(C)C1` [Arecoline, reference compound], the “Agonist Action (pD2)” value in the data set with isolated ileum is recorded as 6.68.
As to `C[N+](C)(C)CCOC(N)=O` [carbachol, reference compound], in data set [4] (carbachol 1 mg/kg s.c., control mice), the “decrease in rectal temperature” value was “about 2.5 °C”. Besides, the “induction of diarrhea, salivation and watering of the eyes” value in data set [4] (carbachol 1 mg/kg s.c., control mice, in words) is “induced diarrhea, salivation and watering of the eyes in all the control mice”.
Take `COc1ccc(Cc2nccc3cc(OC)c(OC)cc23)cc1OC` [Papaverine, reference compound]: the IC50 in data set [5] is 45 µM.
Consider `O=C1CCCN1S(=O)(=O)c1ccc(N2CCCCCC2)cc1` [Example 18, 1-[4-(4-hexahydroazepin)phenylsulphonyl]-2-pyrrolidinone], for which the ED50 in data set [4] (setting [7]) stood at 1 mg/kg; in data set [4] (setting [8]), 15 mg/kg; in data set [4] (setting [9]), 50 mg/kg. Also, the ED (1 degree C) in data set [4] (setting [10]) was found to be 15 mg/kg.
As to `CN(C)c1ccc(S(=O)(=O)N2CCCC2=O)cc1` [Example 3], the solubility result in data set [6] (2N hydrochloric acid) is “insoluble”; in data set [6] (2N sodium hydroxide), “insoluble”; in data set [6] (acetone), “slightly soluble”; in data set [6] (alcohol at 95°), “slightly soluble”; in data set [6] (benzene) it was “slightly soluble”; in data set [6] (chloroform), “Soluble”. In addition, the solubility result in data set [6] (ethyl ether) and in data set [6] (water) was “insoluble” each time.
